Laboratory results reported in article doi:10.1101/2020.08.03.235622v1 (bioRxiv, 2020).
Like-named read-outs stand apart in the source and are kept apart here.

What was measured:
P. aeruginosa PA103 T3SS = format: cell-based, Pseudomonas aeruginosa
[1] = system: P. aeruginosa T3SS gene transcription (exoT, exoS, dsbA); experiment: qPCR of T3SS genes in P. aeruginosa; format: cell-based, Pseudomonas aeruginosa; settings: 60 μM cyclic peptomer; for transcription of exoT: PA103, low calcium, 50 μM MBX1641, 3 hrs
[2] = system: P. aeruginosa PAO1 T3SS (ExoS, ExsE); format: cell-based, Pseudomonas aeruginosa
flagella (fliC) = settings: cited from earlier work
Salmonella SPI-1 T3SS = format: cell-based, Salmonella enterica Typhimurium
HeLa cells = experiment: Host cell viability by LDH release; format: cell-based, human; settings: 9 μM, infected HeLa cells

With “Propylamine, Benzylamine, D-Leu, L-Ile, L-Leu, and D-Phe (PBDLLD) (head to tail) [1EpDN]” as the molecule, how does the IC50 (P. aeruginosa PA103 T3SS; read-out: IC50, inhibition of T3SS effector (ExoU) secretion in P. aeruginosa) read?
The IC50 was about 8 µM.

What about the “transcription of exoT” value [1] of the same molecule?
The value was “did not inhibit transcription of exoT”.

And the “amount of secreted ExoS” value [2]?
The value was “significantly reduced”.

For `O=[N+]([O-])c1cc(CN2CCN(c3ccccc3)CC2)c(O)c2ncccc12` [INP1750], which “lowest known inhibitory concentration (~), fliC/fla” value (flagella (fliC)) is on record?
Its value is about 80 µM.

Which “lowest known inhibitory concentration (~), fliC/fla” value (flagella (fliC)) does the source give for `O=[N+]([O-])c1cc(CN2CCN(c3ccc(F)cc3)CC2)c(O)c2ncccc12` [INP1855] here?
The value was about 30 µM.

With `CC(Oc1ccc(Cl)cc1Cl)C(=O)NCc1ccc2c(c1)OCO2` (centres unmarked) [MBX1641, reference compound] as the molecule, how does the “transcription of exoT” value [1] read?
Its value is “did”.

With “Propylamine, Benzylamine, L-Leu, L-Ile, D-Leu, and D-Phe (PBLLDD) (head to tail) [4EpDN]” as the molecule, how does the “T3SS inhibitory activity (ExoU secretion), in words” value (P. aeruginosa PA103 T3SS) read?
Its value is “improved activity”.

What about the IC50 (P. aeruginosa PA103 T3SS; read-out: IC50, ExoU secretion (PA, Psc/Ysc)) of the same molecule?
The IC50 was 3.9 µM.

And the “concentration at which inhibition of SipA secretion was observed” value (Salmonella SPI-1 T3SS)?
Its value is ~ 1.4 μM.

And the “concentration at which inhibition of SipC secretion was observed” value (Salmonella SPI-1 T3SS)?
Its value is ~ 1 μM.

What about the “expression of the effectors exoS and exoT” value ([1]; P. aeruginosa PAO1 lacking all known efflux pumps, 3 hrs) of the same molecule?
Its value is “did not affect expression”.

And the “amount of secreted ExoS” value [2]?
The value was “significantly reduced”.

And the “secretion of the regulator ExsE” value [2]?
The value was “did not significantly impact secretion”.

What about the “host cell viability as assayed by LDH release” value (HeLa cells) of the same molecule?
The value was “without affecting host cell viability”.
